Results from patent publication US20030022158A1, “Peptides from the TT virus sequence and monospecific antibodies binding to the TT virus” (priority 1999, published 2003).

System: human IgG antibodies in human serum samples
Assay: EIA of human antibody reactivities to overlapping synthetic peptides of TTV ORF1 and ORF2 (Tables 2 and 3)
Type: binding
Settings: human serum sample 1, negative for TTV DNA by PCR; serum diluted 1:100; OD over 0.500 considered positive
Source text: Overlapping peptides (18 amino acids in length containing an 8 amino acid overlap) corresponding to regions of the ORFI and ORF2 of TTV (TABLE 1; Genebank accession no AB008394) were produced by a multiple peptide synthesizer (Syro, Syntex, Germany) using standard Fmoc chemistry (Sallberg et al., Immunology Letters, 30:59 68 (1991), herein expressly incorporated by reference in its entirety).
(§1) The EIAs used to identify which peptides interacted with human sera followed protocols known in the art. (See Zhang et al., J Gen Virol, 78:2735-2746 (1997), herein expressly incorporated by reference in its entirety). Briefly, microplates (Nunc, Denmark) were coated for 48 hours with synthetic peptides at a concentration of 10 μg/ml in 0.05M sodium carbonate buffer pH 9.6. After blocking for 2 hours at room temperature with phosphate buffered saline containing 1% bovine serum albumin, 2% goat serum and 0.05% Tween 20 (dilution buffer) the plates were incubated with human sera diluted 1:100 in dilution buffer. Bound human IgG was detected by incubation with anti-human IgG antibodies conjugated to alkaline phosphatase (Sigma Chemicals, St. Louis, Mo.). The plates were developed by the addition of […] (Sigma) and the optical densities were determined at 405 nm.

| Substance | optical density (OD) at 405 nm |
| --- | --- |
| 2: overlapping synthetic peptide of TTV ORF1 (YAYPGTNRPPV) [compound 2] | 0.08 OD |

Same assay, conditions: human serum sample 2, negative for TTV DNA by PCR; serum diluted 1:100; OD over 0.500 considered positive

| Substance | optical density (OD) at 405 nm |
| --- | --- |
| 2: overlapping synthetic peptide of TTV ORF1 (YAYPGTNRPPV) [compound 2] | 0.08 OD |

Same assay, conditions: human serum sample 3, negative for TTV DNA by PCR; serum diluted 1:100; OD over 0.500 considered positive

| Substance | optical density (OD) at 405 nm |
| --- | --- |
| 2: overlapping synthetic peptide of TTV ORF1 (YAYPGTNRPPV) [compound 2] | 0.07 OD |

Same assay, conditions: human serum sample 4, negative for TTV DNA by PCR; serum diluted 1:100; OD over 0.500 considered positive

| Substance | optical density (OD) at 405 nm |
| --- | --- |
| 2: overlapping synthetic peptide of TTV ORF1 (YAYPGTNRPPV) [compound 2] | 0.11 OD |

Same assay, conditions: human serum sample 5, negative for TTV DNA by PCR; serum diluted 1:100; OD over 0.500 considered positive

| Substance | optical density (OD) at 405 nm |
| --- | --- |
| 2: overlapping synthetic peptide of TTV ORF1 (YAYPGTNRPPV) [compound 2] | 0.07 OD |

Same assay, conditions: human serum sample 6, negative for TTV DNA by PCR; serum diluted 1:100; OD over 0.500 considered positive

| Substance | optical density (OD) at 405 nm |
| --- | --- |
| 2: overlapping synthetic peptide of TTV ORF1 (YAYPGTNRPPV) [compound 2] | 0.09 OD |

Same assay, conditions: human serum sample 7, negative for TTV DNA by PCR; serum diluted 1:100; OD over 0.500 considered positive

| Substance | optical density (OD) at 405 nm |
| --- | --- |
| 2: overlapping synthetic peptide of TTV ORF1 (YAYPGTNRPPV) [compound 2] | 0.08 OD |

Same assay, conditions: human serum sample 9, positive for TTV DNA by PCR; serum diluted 1:100; OD over 0.500 considered positive

| Substance | optical density (OD) at 405 nm |
| --- | --- |
| 2: overlapping synthetic peptide of TTV ORF1 (YAYPGTNRPPV) [compound 2] | 0.07 OD |

Same assay, conditions: human serum sample 11, negative for TTV DNA by PCR; serum diluted 1:100; OD over 0.500 considered positive

| Substance | optical density (OD) at 405 nm |
| --- | --- |
| 2: overlapping synthetic peptide of TTV ORF1 (YAYPGTNRPPV) [compound 2] | 0.14 OD |

Same assay, conditions: human serum sample 18, positive for TTV DNA by PCR; serum diluted 1:100; OD over 0.500 considered positive

| Substance | optical density (OD) at 405 nm |
| --- | --- |
| 2: overlapping synthetic peptide of TTV ORF1 (YAYPGTNRPPV) [compound 2] | 0.06 OD |

Same assay, conditions: human serum sample 36, positive for TTV DNA by PCR; serum diluted 1:100; OD over 0.500 considered positive

| Substance | optical density (OD) at 405 nm |
| --- | --- |
| 2: overlapping synthetic peptide of TTV ORF1 (YAYPGTNRPPV) [compound 2] | 0.08 OD |

Same assay, conditions: human serum sample 48, positive for TTV DNA by PCR; serum diluted 1:100; OD over 0.500 considered positive

| Substance | optical density (OD) at 405 nm |
| --- | --- |
| 2: overlapping synthetic peptide of TTV ORF1 (YAYPGTNRPPV) [compound 2] | 0.10 OD |

Same assay, conditions: human serum sample 98, positive for TTV DNA by PCR; serum diluted 1:100; OD over 0.500 considered positive

| Substance | optical density (OD) at 405 nm |
| --- | --- |
| 2: overlapping synthetic peptide of TTV ORF1 (YAYPGTNRPPV) [compound 2] | 0.05 OD |

Same assay, conditions: human serum sample 110, positive for TTV DNA by PCR; serum diluted 1:100; OD over 0.500 considered positive

| Substance | optical density (OD) at 405 nm |
| --- | --- |
| 2: overlapping synthetic peptide of TTV ORF1 (YAYPGTNRPPV) [compound 2] | 0.08 OD |

Same assay, conditions: human serum sample 155, positive for TTV DNA by PCR; serum diluted 1:100; OD over 0.500 considered positive

| Substance | optical density (OD) at 405 nm |
| --- | --- |
| 2: overlapping synthetic peptide of TTV ORF1 (YAYPGTNRPPV) [compound 2] | 0.07 OD |

Same assay, conditions: human serum sample 157, positive for TTV DNA by PCR; serum diluted 1:100; OD over 0.500 considered positive

| Substance | optical density (OD) at 405 nm |
| --- | --- |
| 2: overlapping synthetic peptide of TTV ORF1 (YAYPGTNRPPV) [compound 2] | 0.08 OD |

Same assay, conditions: serum sample 1, negative for TTV DNA by PCR; serum 1:100; peptide coated 10 μg/ml; OD over 0.500 positive

| Substance | optical density (OD) at 405 nm, EIA reactivity of human serum sample 1 |
| --- | --- |
| 2: overlapping synthetic peptide of TTV ORF1 (YAYPGTNRPPV) [compound 2] | 0.10 OD |

Same assay, conditions: serum sample 2, negative for TTV DNA by PCR; serum 1:100; peptide coated 10 μg/ml; OD over 0.500 positive

| Substance | optical density (OD) at 405 nm, EIA reactivity of human serum sample 2 |
| --- | --- |
| 2: overlapping synthetic peptide of TTV ORF1 (YAYPGTNRPPV) [compound 2] | 0.11 OD |

Same assay, conditions: serum sample 3, negative for TTV DNA by PCR; serum 1:100; peptide coated 10 μg/ml; OD over 0.500 positive

| Substance | optical density (OD) at 405 nm, EIA reactivity of human serum sample 3 |
| --- | --- |
| 2: overlapping synthetic peptide of TTV ORF1 (YAYPGTNRPPV) [compound 2] | 0.11 OD |

Same assay, conditions: serum sample 4, negative for TTV DNA by PCR; serum 1:100; peptide coated 10 μg/ml; OD over 0.500 positive

| Substance | optical density (OD) at 405 nm, EIA reactivity of human serum sample 4 |
| --- | --- |
| 2: overlapping synthetic peptide of TTV ORF1 (YAYPGTNRPPV) [compound 2] | 0.10 OD |

Same assay, conditions: serum sample 5, negative for TTV DNA by PCR; serum 1:100; peptide coated 10 μg/ml; OD over 0.500 positive

| Substance | optical density (OD) at 405 nm, EIA reactivity of human serum sample 5 |
| --- | --- |
| 2: overlapping synthetic peptide of TTV ORF1 (YAYPGTNRPPV) [compound 2] | 0.08 OD |

Same assay, conditions: serum sample 6, negative for TTV DNA by PCR; serum 1:100; peptide coated 10 μg/ml; OD over 0.500 positive

| Substance | optical density (OD) at 405 nm, EIA reactivity of human serum sample 6 |
| --- | --- |
| 2: overlapping synthetic peptide of TTV ORF1 (YAYPGTNRPPV) [compound 2] | 0.12 OD |

Same assay, conditions: serum sample 7, negative for TTV DNA by PCR; serum 1:100; peptide coated 10 μg/ml; OD over 0.500 positive

| Substance | optical density (OD) at 405 nm, EIA reactivity of human serum sample 7 |
| --- | --- |
| 2: overlapping synthetic peptide of TTV ORF1 (YAYPGTNRPPV) [compound 2] | 0.09 OD |

Same assay, conditions: serum sample 9, positive for TTV DNA by PCR; serum 1:100; peptide coated 10 μg/ml; OD over 0.500 positive

| Substance | optical density (OD) at 405 nm, EIA reactivity of human serum sample 9 |
| --- | --- |
| 2: overlapping synthetic peptide of TTV ORF1 (YAYPGTNRPPV) [compound 2] | 0.08 OD |

Same assay, conditions: serum sample 11, negative for TTV DNA by PCR; serum 1:100; peptide coated 10 μg/ml; OD over 0.500 positive

| Substance | optical density (OD) at 405 nm, EIA reactivity of human serum sample 11 |
| --- | --- |
| 2: overlapping synthetic peptide of TTV ORF1 (YAYPGTNRPPV) [compound 2] | 0.14 OD |

Same assay, conditions: serum sample 18, positive for TTV DNA by PCR; serum 1:100; peptide coated 10 μg/ml; OD over 0.500 positive

| Substance | optical density (OD) at 405 nm, EIA reactivity of human serum sample 18 |
| --- | --- |
| 2: overlapping synthetic peptide of TTV ORF1 (YAYPGTNRPPV) [compound 2] | 0.08 OD |

Same assay, conditions: serum sample 36, positive for TTV DNA by PCR; serum 1:100; peptide coated 10 μg/ml; OD over 0.500 positive

| Substance | optical density (OD) at 405 nm, EIA reactivity of human serum sample 36 |
| --- | --- |
| 2: overlapping synthetic peptide of TTV ORF1 (YAYPGTNRPPV) [compound 2] | 0.08 OD |

Same assay, conditions: serum sample 48, positive for TTV DNA by PCR; serum 1:100; peptide coated 10 μg/ml; OD over 0.500 positive

| Substance | optical density (OD) at 405 nm, EIA reactivity of human serum sample 48 |
| --- | --- |
| 2: overlapping synthetic peptide of TTV ORF1 (YAYPGTNRPPV) [compound 2] | 0.08 OD |

Same assay, conditions: serum sample 98, positive for TTV DNA by PCR; serum 1:100; peptide coated 10 μg/ml; OD over 0.500 positive

| Substance | optical density (OD) at 405 nm, EIA reactivity of human serum sample 98 |
| --- | --- |
| 2: overlapping synthetic peptide of TTV ORF1 (YAYPGTNRPPV) [compound 2] | 0.08 OD |

Same assay, conditions: serum sample 110, positive for TTV DNA by PCR; serum 1:100; peptide coated 10 μg/ml; OD over 0.500 positive

| Substance | optical density (OD) at 405 nm, EIA reactivity of human serum sample 110 |
| --- | --- |
| 2: overlapping synthetic peptide of TTV ORF1 (YAYPGTNRPPV) [compound 2] | 0.09 OD |

Same assay, conditions: serum sample 155, positive for TTV DNA by PCR; serum 1:100; peptide coated 10 μg/ml; OD over 0.500 positive

| Substance | optical density (OD) at 405 nm, EIA reactivity of human serum sample 155 |
| --- | --- |
| 2: overlapping synthetic peptide of TTV ORF1 (YAYPGTNRPPV) [compound 2] | 0.14 OD |

Same assay, conditions: serum sample 157, positive for TTV DNA by PCR; serum 1:100; peptide coated 10 μg/ml; OD over 0.500 positive

| Substance | optical density (OD) at 405 nm, EIA reactivity of human serum sample 157 |
| --- | --- |
| 2: overlapping synthetic peptide of TTV ORF1 (YAYPGTNRPPV) [compound 2] | 0.13 OD |

System: human antibodies in human serum samples
Assay: EIA reactivities of three human serum samples with deletion and alanine substitution analogues of SEQ ID NO: 1 (Table 6)
Type: binding
Settings: human serum sample P4; positive = more than 50% of the reactivity of the original peptide
Experimental: as §1
The reactivity to the TATTTTYAYPGTNRPPV (SEQ ID NO: 1) peptide was further characterized by mapping the reactivity of deletion and substitution peptide analogues.

| Substance | OD at 405 nm, reactivity of human serum sample P4 |
| --- | --- |
| 2: overlapping synthetic peptide of TTV ORF1 (YAYPGTNRPPV) [compound 2] | 0.647 OD |

Same assay, conditions: human serum sample P7; positive = more than 50% of the reactivity of the original peptide

| Substance | OD at 405 nm, reactivity of human serum sample P7 |
| --- | --- |
| 2: overlapping synthetic peptide of TTV ORF1 (YAYPGTNRPPV) [compound 2] | 1.546 OD |

Same assay, conditions: human serum sample P36; positive = more than 50% of the reactivity of the original peptide

| Substance | OD at 405 nm, reactivity of human serum sample P36 |
| --- | --- |
| 2: overlapping synthetic peptide of TTV ORF1 (YAYPGTNRPPV) [compound 2] | 0.677 OD |
